Assay results as given in paper PMC9189845, “Structure–Activity Relationships of 8-Hydroxyquinoline-Derived Mannich Bases with Tertiary Amines Targeting Multidrug-Resistant Cancer” (Journal of Medicinal Chemistry, 2022).
Where two headings read alike, the source gives them in different places.

Experiments:
A431 cells = assay: PrestoBlue viability assay, A431 cells; details: Homo sapiens
MES-SA cells = assay: PrestoBlue viability assay, MES-SA cells; details: Homo sapiens, MES-SA
A431-B1 cells = assay: PrestoBlue viability assay, A431-B1 (A431-ABCB1) cells
MES-SA/Dx5 cells = assay: PrestoBlue viability assay, MES-SA/Dx5 cells (MDR, P-gp positive); details: for IC50: Homo sapiens; for SR_TQ: selectivity ratio MES-SA vs MES-SA/Dx5, with TQ; for SR: selectivity ratio MES-SA vs MES-SA/Dx5, without TQ; for SR (MES-SA_TQ / Dx5_TQ) (values in parentheses): fraction of IC50 in P-gp negative vs positive cells, presence of 1 μM TQ
[1] = A-431, 72 h, read-out: IC50 / µM A431, 72 h incubation
[2] = A-431, read-out: pIC50 A431, SARM figure (converted)
[3] = 72 h, read-out: IC50 / μM MES-SA, absence of TQ, 72 h incubation
[4] = read-out: IC50 / μM MES-SA (values in parentheses), presence of 1 μM P-gp inhibitor tariquidar (TQ)
[5] = read-out: pIC50 MES-SA_TQ, presence of 1 μM TQ (converted), SARM figure
[6] = read-out: pIC50 value MES-SA+TQ, MES-SA cells, with TQ (converted)
[7] = read-out: pIC50 value MES-SA, MES-SA cells, without TQ (converted)
[8] = 72 h, read-out: IC50 / µM A431-B1, 72 h incubation
[9] = read-out: pIC50 A431-B1, SARM figure (converted)
[10] = MES-SA/Dx5, 72 h, read-out: IC50 / μM MES-SA/Dx5, absence of TQ, 72 h incubation
[11] = MES-SA/Dx5, read-out: IC50 / μM MES-SA/Dx5 (values in parentheses), presence of 1 μM P-gp inhibitor tariquidar (TQ)
[12] = MES-SA/Dx5, read-out: pIC50 Dx5_TQ, presence of 1 μM TQ (converted), SARM figure
[13] = MES-SA/Dx5, read-out: pIC50 value MES-SA/Dx5 + TQ, MES-SA/Dx5 cells, with TQ (converted)
[14] = MES-SA/Dx5, read-out: pIC50 value MES-SA/Dx5, MES-SA/Dx5 cells, without TQ (converted)
[15] = read-out: pIC50 MES-SA, absence of TQ (converted), SARM figure

| IC50 (A431 cells; [1]) [µM] | IC50 (A431 cells; [2]) [µM] | IC50 (A431-B1 cells; [8]) [µM] | IC50 (A431-B1 cells; [9]) [µM] | SMILES | IC50 (MES-SA cells; [3]) [µM] | IC50 (MES-SA cells; [4]) [µM] | IC50 (MES-SA cells; [5]) [µM] | IC50 (MES-SA cells; [6]) [µM] | IC50 (MES-SA cells; [7]) [µM] | IC50 (MES-SA/Dx5 cells; [10]) [µM] | IC50 (MES-SA/Dx5 cells; [11]) [µM] | IC50 (MES-SA/Dx5 cells; [12]) [µM] | IC50 (MES-SA/Dx5 cells; [13]) [µM] | IC50 (MES-SA/Dx5 cells; [14]) [µM] | SR_TQ (MES-SA/Dx5 cells) | SR (MES-SA/Dx5 cells) | SR (MES-SA_TQ / Dx5_TQ) (values in parentheses) (MES-SA/Dx5 cells) | IC50 (MES-SA cells; [15]) [µM] |
| --- | --- | --- | --- | --- | --- | --- | --- | --- | --- | --- | --- | --- | --- | --- | --- | --- | --- | --- |
| 77.2 ± 11.6 | 75.9 | 26.49 ± 0.12 | 26.3 | COCc1cc(CN2CCN(C)CC2)c(O)c2ncccc12 [Compound 35] | 24.8 ± 3.36 | 30.2 ± 0.64 | – | 30.2 | 24.5 | 8.82 ± 1.41 | 27.54 ± 0.13 | – | – | 8.71 | 1.1 | 2.81 | 1.10 | – |
| 66.6 ± 20.8 | 63.1 | 24.1 ± 10.1 | 22.4 | CCOCc1cc(CN2CCN(C)CC2)c(O)c2ncccc12 [Compound 36] | 23 ± 1.46 | 22.9 ± 1.08 | 22.9 | 22.9 | 22.9 | 7.43 ± 0.46 | 17.1 ± 2.19 | – | 17 | 7.41 | 1.34 | 3.09 | – | 22.9 |
| 19.9 ± 9.14 | 18.2 | 6.19 ± 1.73 | 5.89 | CCCOCc1cc(CN2CCN(C)CC2)c(O)c2ncccc12 [Compound 37] | 13.5 ± 0.86 | 12.3 ± 0.28 | – | 12.3 | 13.5 | 3.24 ± 0.19 | 7.41 ± 0.01 | – | 7.41 | 3.24 | 1.66 | 4.17 | – | – |
| 9.99 ± 4.76 | 8.91 | 2.33 ± 0.35 | 2.29 | COCc1cc(CN2CCN(c3ccccc3)CC2)c(O)c2ncccc12 [Compound 39] | 1.08 ± 0.15 | 1.2 ± 0.05 | – | 1.2 | 1.07 | 0.48 ± 0.07 | 0.85 ± 0.08 | – | 0.851 | 0.479 | 1.41 | 2.23 | – | – |
| 6.24 ± 1.95 | 5.89 | 1.94 ± 0.19 | 1.91 | CCOCc1cc(CN2CCN(c3ccccc3)CC2)c(O)c2ncccc12 [Compound 40] | 1.27 ± 0.15 | 1.62 ± 0.005 | – | 1.62 | 1.26 | 0.34 ± 0.04 | 1.05 ± 0.1 | – | 1.05 | 0.339 | 1.54 | 3.72 | – | – |
| 5.69 ± 0.76 | 5.62 | 2.41 ± 0.37 | 2.4 | CCCOCc1cc(CN2CCN(c3ccccc3)CC2)c(O)c2ncccc12 [Compound 41] | 1.45 ± 0.13 | 1.45 ± 0.07 | 1.45 | 1.45 | 1.45 | 0.24 ± 0.03 | 0.83 ± 0.01 | 0.955 | 0.832 | 0.24 | 1.74 | 6.01 | – | 1.45 |
| 7.35 ± 2.49 | 6.92 | 1.84 ± 0.48 | 1.78 | CC(C)OCc1cc(CN2CCN(c3ccccc3)CC2)c(O)c2ncccc12 [Compound 42] | 1.06 ± 0.19 | 1.01 ± 0.16 | – | 1 | 1.05 | 0.25 ± 0.05 | 0.66 ± 0.13 | – | 0.646 | 0.245 | 1.54 | 4.24 | – | – |
| 9.41 ± 1.41 | 9.33 | 8.06 ± 2.89 | 7.59 | Oc1c(CN2CCN(c3ccccn3)CC2)cc(Cl)c2cccnc12 [Compound 43] | 2.19 ± 0.12 | 2.19 ± 0.17 | 2.19 | 2.19 | 2.19 | 0.33 ± 0.05 | 1.23 ± 0.05 | – | – | 0.331 | 1.78 | 6.55 | – | 2.19 |
| 4.04 ± 0.39 | 3.98 | 3.25 ± 0.94 | 3.09 | Oc1c(CN2CCN(c3ccc(F)cc3)CC2)cc(Cl)c2cccnc12 [Compound 44] | 1.61 ± 0.3 | 1.75 ± 0.16 | – | 1.74 | 1.58 | 0.25 ± 0.01 | 0.65 ± 0.05 | – | 0.646 | 0.245 | 2.7 | 6.56 | 2.70 | – |
| 8.57 ± 2.94 | 8.13 | 1.99 ± 0.25 | 2 | CCOC(=O)C1CCN(Cc2cc(Cl)c3cccnc3c2O)CC1 [Compound 49] | 1.78 ± 0.12 | 1.7 | – | 1.7 | 1.78 | 0.18 ± 0.03 | 0.98 | – | 0.977 | 0.178 | 1.73 | 9.91 | – | – |
| 5.57 ± 1.08 | 5.5 | 2.94 ± 1.69 | 2.57 | Oc1c(CN2CCCCCC2)cc(Cl)c2cccnc12 [Compound 53] | 2.76 ± 0.14 | 2.64 ± 0.27 | – | 2.63 | 2.75 | 0.33 ± 0.06 | 2 ± 0.19 | – | 2 | 0.324 | 1.32 | 8.4 | – | – |

Second part, the compound before the results:

| SMILES | IC50 (A431 cells; [1]) [µM] | IC50 (A431 cells; [2]) [µM] | IC50 (A431-B1 cells; [8]) [µM] | IC50 (A431-B1 cells; [9]) [µM] | IC50 (MES-SA cells; [3]) [µM] | IC50 (MES-SA cells; [4]) [µM] | IC50 (MES-SA cells; [5]) [µM] | IC50 (MES-SA cells; [6]) [µM] | IC50 (MES-SA cells; [7]) [µM] | IC50 (MES-SA/Dx5 cells; [10]) [µM] | IC50 (MES-SA/Dx5 cells; [11]) [µM] | IC50 (MES-SA/Dx5 cells; [12]) [µM] | IC50 (MES-SA/Dx5 cells; [13]) [µM] | IC50 (MES-SA/Dx5 cells; [14]) [µM] | SR_TQ (MES-SA/Dx5 cells) | SR (MES-SA/Dx5 cells) | SR (MES-SA_TQ / Dx5_TQ) (values in parentheses) (MES-SA/Dx5 cells) | IC50 (MES-SA cells; [15]) [µM] |
| --- | --- | --- | --- | --- | --- | --- | --- | --- | --- | --- | --- | --- | --- | --- | --- | --- | --- | --- |
| CCCOCc1cc(CN2CCCCC2)c(O)c2ncccc12 [Compound 23] | 6.72 ± 0.57 | 6.76 | 1.53 ± 0.55 | 1.45 | 3.72 ± 0.25 | 3.55 ± 0.08 | 3.8 | 3.55 | 3.72 | 0.34 ± 0.02 | 2.4 ± 0.04 | 2.75 | 2.4 | 0.339 | 1.48 | 10.97 | – | – |
| CC1CCN(Cc2cc(Cl)c3cccnc3c2O)CC1 [Compound 25] | 8.93 ± 1.44 | 8.71 | 1.46 ± 0.08 | 1.45 | 2.7 ± 0.21 | 2.88 | – | 2.88 | 2.69 | 0.26 ± 0.04 | 1.59 | – | 1.58 | 0.257 | 1.82 | 10.37 | – | – |
| COCc1cc(CN2CCC(C)CC2)c(O)c2ncccc12 [Compound 26] | 14.5 ± 3.84 | 13.8 | 2.29 ± 0.28 | 2.29 | 6.2 ± 0.66 | 6.47 ± 0.41 | – | 6.46 | 6.17 | 0.58 ± 0.05 | 4.68 ± 0.16 | – | 4.68 | 0.575 | 1.38 | 10.73 | – | – |
| CCOCc1cc(CN2CCC(C)CC2)c(O)c2ncccc12 [Compound 27] | 11.8 ± 4.34 | 11 | 2.37 ± 0.87 | 2.24 | 4.09 ± 0.42 | 4.48 ± 0.37 | – | 4.47 | 4.07 | 0.47 ± 0.05 | 3.05 ± 0.47 | – | 3.02 | 0.468 | 1.47 | 8.71 | – | – |
| CC1CCN(Cc2cc(COC(C)C)c3cccnc3c2O)CC1 [Compound 28] | 7.24 ± 1.78 | 7.08 | 1.72 ± 0.15 | 1.7 | 2.84 ± 0.35 | 3.02 ± 0.09 | – | 3.02 | 2.82 | 0.36 ± 0.04 | 2.15 ± 0.22 | – | 2.14 | 0.355 | 1.41 | 7.96 | – | – |
| Oc1c(CN2CCOCC2)cc(Br)c2cccnc12 [Compound 30] | 9.3 ± 3.05 | 8.91 | 2.89 ± 0.25 | 2.88 | 1.13 ± 0.13 | 1.32 ± 0.01 | – | 1.32 | 1.12 | 0.46 ± 0.04 | 0.85 ± 0.06 | – | 0.851 | 0.457 | 1.54 | 2.46 | – | – |
| COCc1cc(CN2CCOCC2)c(O)c2ncccc12 [Compound 31] | 34.4 ± 8.42 | 33.1 | 12.1 ± 1.47 | 12 | 9.89 ± 1.52 | 8.97 ± 1.01 | – | 8.91 | 9.77 | 5.64 ± 0.45 | 7.77 ± 0.31 | – | 7.76 | 5.62 | 1.15 | 1.75 | – | – |
| CCOCc1cc(CN2CCOCC2)c(O)c2ncccc12 [Compound 32] | 24.7 ± 10.9 | 22.4 | 5.58 ± 0.58 | 5.5 | 5.85 ± 0.54 | – | – | – | 5.75 | 3 ± 0.3 | – | – | – | 2.95 | – | 1.95 | – | – |
| CC(C)OCc1cc(CN2CCOCC2)c(O)c2ncccc12 [Compound 33] | 13.2 ± 6.23 | 12 | 4.76 ± 0.23 | 4.79 | 3.12 ± 0.6 | – | – | – | 3.09 | 1.74 ± 0.29 | – | – | – | 1.7 | – | 1.79 | – | – |
